Data taken from the supplement of paper PMC9512659.

What was measured:
[1] = tested on: Mycobacterium tuberculosis Erdman (pMV306hsp+LuxG13); experiment: AUC25, normalised area under the dose-response curve up to IC25 (normalised AUC (unitless)); higher = more potent
Experimental: (§1)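 DiaMOND pairwise dose responses of an equipotent two-drug mixture (1.5-fold, 10-dose series) against autoluminescent M. tuberculosis Erdman in 384-well plates. Growth inhibition was read by OD600 (luminescence for dormancy) in seven media at a constant and a terminal time point; metrics are means of at least biological duplicates. Einf and AUC25 higher = more potent; GRinf lower = more potent; log2FIC negative = synergy.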

[2] = tested on: Mycobacterium tuberculosis Erdman (pMV306hsp+LuxG13); experiment: Einf, effect of the drug pair at infinite dose (maximum growth inhibition) (fraction inhibition (0-1)); higher = more potent; extreme values may be limits of the assay
Experimental: as §1

[3] = tested on: Mycobacterium tuberculosis Erdman (pMV306hsp+LuxG13); experiment: GRinf, normalised growth-rate inhibition at infinite dose (GR value (unitless, negative = killing)); higher = less potent
Experimental: as §1

[4] = tested on: Mycobacterium tuberculosis Erdman (pMV306hsp+LuxG13); experiment: log2 fractional inhibitory concentration at 90% inhibition (log2 FIC); higher = more antagonistic
Experimental: as §1

[5] = tested on: Mycobacterium tuberculosis Erdman (pMV306hsp+LuxG13); experiment: log2 fractional inhibitory concentration at 50% inhibition (log2 FIC); higher = more antagonistic
Experimental: as §1

O=[N+]([O-])c1cn2c(n1)OC[C@@H](OCc1ccc(OC(F)(F)F)cc1)C2 [pretomanid] + CC(=O)NC[C@H]1CN(c2ccc(N3CCSCC3)c(F)c2)C(=O)O1 [sutezolid]
Details | AUC25, [1] | Einf, [2] | GRinf, [3] | log2 fractional inhibitory concentration, [4] | log2 fractional inhibitory concentration, [5]
growth medium: acidic pH 5.7, glycerol, time point: constant time point | 0.0784 | 0.879 | -0.246 | – | -0.119
growth medium: acidic pH 5.7, glycerol, time point: terminal time point | 0.0823 | 0.987 | -0.346 | -0.449 | 0.0862
growth medium: butyrate 5 mM, time point: constant time point | 0.0935 | 0.93 | 0.0242 | – | 1.07
growth medium: butyrate 5 mM, time point: terminal time point | 0.0736 | 0.97 | -0.0169 | 1.11 | 0.95
growth medium: cholesterol 0.05 mM, time point: constant time point | 0.0266 | 0.865 | -1 | – | -0.159
growth medium: cholesterol 0.2 mM (cholesterol-high), time point: constant time point | 0.0533 | 0.961 | -0.417 | 0.19 | -0.512
growth medium: cholesterol 0.2 mM (cholesterol-high), time point: terminal time point | 0.0918 | 1 | -0.326 | -0.4 | -0.395
growth medium: standard 7H9 OADC glycerol, time point: constant = terminal time point (4.2 d) | 0.0632 | 0.988 | -0.142 | -0.266 | 0.0178
growth medium: valerate 0.1%, time point: constant time point | 0.119 | 0.974 | -0.158 | – | -0.783
growth medium: valerate 0.1%, time point: terminal time point | 0.0856 | 0.978 | -0.0339 | -0.487 | -0.609

growth medium: hypoxic dormancy (butyrate + nitrate), then recovery
Details | AUC25, [1] | Einf, [2] | GRinf, [3] | log2 fractional inhibitory concentration, [4] | log2 fractional inhibitory concentration, [5]
time point: constant time point | 0.0715 | 0.965 | 0.332 | -0.853 | -0.376
time point: terminal time point | 0.0423 | 0.932 | 0.457 | -0.41 | -0.056

NC(=O)c1cnccn1 [pyrazinamide] + CC(=O)NC[C@H]1CN(c2ccc(N3CCSCC3)c(F)c2)C(=O)O1 [sutezolid]
Details | AUC25, [1] | Einf, [2] | GRinf, [3] | log2 fractional inhibitory concentration, [4] | log2 fractional inhibitory concentration, [5]
growth medium: acidic pH 5.7, glycerol, time point: constant time point | 0.128 | 0.818 | -0.0805 | – | -0.856
growth medium: acidic pH 5.7, glycerol, time point: terminal time point | 0.124 | 0.99 | -0.272 | -0.518 | -0.292
growth medium: butyrate 5 mM, time point: constant time point | 0.0878 | 0.913 | 0.0976 | – | 0.557
growth medium: butyrate 5 mM, time point: terminal time point | 0.0684 | 0.949 | 0.124 | – | –
growth medium: cholesterol 0.05 mM, time point: constant time point | 0.0696 | 1 | -1 | – | 0.194
growth medium: cholesterol 0.2 mM (cholesterol-high), time point: constant time point | 0.0979 | 0.996 | -0.785 | 0.258 | 0.242
growth medium: cholesterol 0.2 mM (cholesterol-high), time point: terminal time point | 0.105 | 1 | -0.929 | 0.207 | -0.145
growth medium: valerate 0.1%, time point: constant time point | 0.0804 | 0.884 | -0.147 | – | 0.999
growth medium: valerate 0.1%, time point: terminal time point | 0.0613 | 0.962 | -0.0671 | – | 0.436

growth medium: hypoxic dormancy (butyrate + nitrate), then recovery
Details | AUC25, [1] | Einf, [2] | GRinf, [3] | log2 fractional inhibitory concentration, [5]
time point: constant time point | 0.0726 | 0.984 | -0.401 | –
time point: terminal time point | 0.0286 | 0.786 | -0.5 | 0.898

NC(=O)c1cnccn1 [pyrazinamide] + CC(C)=CCC/C(C)=C/CNCCNC1C2CC3CC(C2)CC1C3 [SQ109]
Details | AUC25, [1] | Einf, [2] | GRinf, [3] | log2 fractional inhibitory concentration, [4] | log2 fractional inhibitory concentration, [5]
growth medium: butyrate 5 mM, time point: constant time point | 0.0786 | 0.915 | -0.00249 | – | 0.356
growth medium: butyrate 5 mM, time point: terminal time point | 0.0634 | 0.946 | 0.022 | – | 0.129
growth medium: cholesterol 0.05 mM, time point: constant time point | 0.116 | 0.894 | -0.787 | – | –
growth medium: cholesterol 0.2 mM (cholesterol-high), time point: constant time point | 0.0592 | 0.977 | -0.852 | -0.16 | 0.707
growth medium: cholesterol 0.2 mM (cholesterol-high), time point: terminal time point | 0.0665 | 0.997 | -0.789 | -0.347 | 0.668
growth medium: standard 7H9 OADC glycerol, time point: constant = terminal time point (4.2 d) | 0.032 | 0.84 | 0.242 | – | –
growth medium: valerate 0.1%, time point: constant time point | 0.0384 | 0.933 | 0.0532 | – | -0.164
growth medium: valerate 0.1%, time point: terminal time point | 0.0424 | 0.944 | 0.0196 | – | -0.462

CO[C@H]1/C=C/O[C@@]2(C)Oc3c(C)c(O)c4c(O)c(c(/C=N/N5CCN(C)CC5)c(O)c4c3C2=O)NC(=O)/C(C)=C\C=C\[C@H](C)[C@H](O)[C@@H](C)[C@@H](O)[C@@H](C)[C@H](OC(C)=O)[C@@H]1C [rifampicin] + CC(=O)NC[C@H]1CN(c2ccc(N3CCSCC3)c(F)c2)C(=O)O1 [sutezolid]
Details | AUC25, [1] | Einf, [2] | GRinf, [3] | log2 fractional inhibitory concentration, [4] | log2 fractional inhibitory concentration, [5]
growth medium: acidic pH 5.7, glycerol, time point: constant time point | 0.0817 | 0.853 | -0.111 | – | 0.233
growth medium: acidic pH 5.7, glycerol, time point: terminal time point | 0.076 | 0.977 | -0.205 | -0.595 | 0.315
growth medium: butyrate 5 mM, time point: constant time point | 0.0989 | 0.911 | 0.0134 | – | -0.239
growth medium: butyrate 5 mM, time point: terminal time point | 0.0783 | 0.953 | -0.0141 | -0.298 | -0.147
growth medium: cholesterol 0.2 mM (cholesterol-high), time point: constant time point | 0.0474 | 0.988 | -0.878 | -0.588 | -0.0927
growth medium: cholesterol 0.2 mM (cholesterol-high), time point: terminal time point | 0.0807 | 1 | -0.728 | -0.315 | -0.136
growth medium: standard 7H9 OADC glycerol, time point: constant = terminal time point (4.2 d) | 0.0433 | 0.969 | -0.0246 | -0.846 | -0.167
growth medium: valerate 0.1%, time point: constant time point | 0.11 | 0.962 | 0.0594 | – | 1.45
growth medium: valerate 0.1%, time point: terminal time point | 0.0701 | 0.979 | -0.0207 | 0.302 | 0.427

growth medium: hypoxic dormancy (butyrate + nitrate), then recovery
Details | AUC25, [1] | Einf, [2] | GRinf, [3] | log2 fractional inhibitory concentration, [4] | log2 fractional inhibitory concentration, [5]
time point: constant time point | 0.0508 | 0.978 | 0.206 | -0.578 | -0.575
time point: terminal time point | 0.06 | 0.971 | 0.237 | -0.678 | 0.255
